In assay [1] the target is T1, CDK2 (Homo sapiens, UniProt P24941).
T1 construct: High-Throughput Measurement of Cellular Endogenous CDK2; endogenous in cells; host or cells: OVCAR3
The assay can be described thus: Inhibition of CDK2: phospho-Rb (S807/811) HTRF measurement in OVCAR3 cells. Particulars: 24 h compound treatment, read-out: pRb (nM), IC50 in pRB(S807/811) assay. In kind it is cell-based. For orientation: TR-FRET usually uses a lanthanide donor and a delayed reading to cut background.

Assay [2] concerns the target T1, CDK2. The assay can be described thus: CDK2 HTRF assay: cellular endogenous CDK2 level in OVCAR3 cells. In kind it is cell-based. The following applies: 24 hours compound treatment, read-out: DC50 (half maximal degradation concentration of CDK2). The protocol: Effects of compounds on cellular CDK2 level can be monitored by a high-throughput HTRF assay or traditional Western Blot assay.
To determine half maximal degradation concentration (DC50) values of compounds, cellular CDK2 level was measured in 96-well format using HTRF total CDK2 cellular kit (Cat #64CDK2TPEG) from Cisbio.
On Day 1, OVCAR3 cells were seeded into 96-well tissue-culture treated plates at 20,000 cells/well in 200 μL and incubated overnight at 37° C. in CO2 atmosphere. On Day 2 cells were treated with compounds at concentration ranging from 0.3 to 10,000 nM using HP D300 digital dispenser. 24 hours after compound treatment, cell culture media was removed by flicking the plate and tapping the plate against clean paper towel. Immediately 30 μL 1× lysis buffer was supplemented from the kit and the plate was incubated at room temperature on shaker for 30 min. After homogenization by pipetting up and down, 8 μL cell lysate from 96-well cell culture plate was transferred to 384-well small volume white detection plate. 2 μL premixed detection solution was added and the plate was covered with sealer. To prepare the detection solution, d2 conjugated-CDK2 antibody and Eu-cryptate conjugated CDK2 antibody were diluted into detection buffer following manufacturer's instruction. Detection plates were incubated overnight at room temperature and read on ClarioStar (BMG Labtech) in TR-FRET mode (665 nM and 620 nM). The TR-FRET ratio (665 nM/620 nM) was plotted against the compound concentration and normalized to DMSO controls. Half maximal degradation concentration (DC50) values were calculated with a four-parameter logistic fit using GraphPad Prism (version 8; La Jolla, CA).
In the table below, A indicates a DC50 of less than 0.1 μM; B indicates a DC50 of greater than or equal to 0.1 μM but less than 0.5 μM; C indicates a DC50 of greater than or equal to 0.5 μM but less than 1 μM; and D indicates a DC50 of greater than or equal to 1 μM but less than 10 μM.

A value given as a limit tells only on which side of the number the result lay.

`Cn1nc(N2CCC(=O)NC2=O)c2ccc(C3CCN(CC4CCCC(S(=O)(=O)N5CCC(Nc6ncc(C(F)(F)F)c(-c7cnn(CC(F)(F)F)c7)n6)CC5)C4)CC3)cc21` (stereo not drawn) [Example 89, 1-(1-methyl-6-(1-((3-((4-((4-(1-(2,2,2-trifluoroethyl)-1H-pyrazol-4-yl)-5-(trifluoromethyl)pyrimidin-2-yl)amino)-piperidin-1-yl)sulfonyl)-cyclohexyl)-methyl)piperidin-4-yl)-1H-indazol-3-yl)dihydropyrimidine-2,4(1H,3H)-dione]: the IC50 on CDK2 [1] is less than 100 nM. For the same compound, the DC50 on CDK2 [2] was less than 0.1 µM.
For `O=C1CCC(N2C(=O)c3cc(F)c(N4CCN(Cc5cccc(S(=O)(=O)N6CCC(Nc7ncc(C(F)(F)F)c(-c8cnn(CC(F)F)c8)n7)CC6)c5)CC4)cc3C2=O)C(=O)N1` (stereo not drawn) [Example 22, 5-(4-(3-((4-((4-(1-(2,2-difluoroethyl)-1H-pyrazol-4-yl)-5-(trifluoromethyl)-pyrimidin-2-yl)amino)-piperidin-1-yl)sulfonyl)benzyl)piperazin-1-yl)-2-(2,6-dioxopiperidin-3-yl)-6-fluoroiso-indoline-1,3-dione], in that order: 100 to 500 nM and less than 0.1 µM.
For `O=C1CCC(N2Cc3cc(C4CN(Cc5cccc(S(=O)(=O)N6CCC(Nc7ncc(C(F)(F)F)c(-c8cnn(CC(F)(F)F)c8)n7)CC6)c5)C4)ccc3C2=O)C(=O)N1` (stereo not drawn) [Example 3, 3-(1-oxo-5-(1-(3-((4-((4-(1-(2,2,2-trifluoroethyl)-1H-pyrazol-4-yl)-5-(trifluoromethyl)pyrimidin-2-yl)-amino)-piperidin-1-yl)sulfonyl)-benzyl)azetidin-3-yl)isoindolin-2-yl)piperidine-2,6-dione], in that order: less than 100 nM and less than 0.1 µM.
Taken in the same sequence, the figures for `O=C1CCN(c2ccc(N3CCN(Cc4cccc(S(=O)(=O)N5CCC(Nc6ncc(C(F)(F)F)c(-c7cnn(CC(F)(F)F)c7)n6)CC5)c4)CC3)c(C(F)(F)F)c2)C(=O)N1` [Example 16, 1-(4-(4-(3-((4-((4-(1-(2,2,2-trifluoro-ethyl)-1H-pyrazol-4-yl)-5-(trifluoro-methyl)pyrimidin-2-yl)amino)-piperidin-1-yl)sulfonyl)benzyl)-piperazin-1-yl)-3-(trifluoromethyl)-phenyl)dihydro-pyrimidine-2,4(1H,3H)-dione] were 1000 to 10000 nM and 1 to 10 µM.
`Cn1nc(N2CCC(=O)NC2=O)c2ccc(C3CCN(Cc4cccc(S(=O)(=O)N5CCC(Nc6ncc(C(F)(F)F)c(-c7cnn(CC(F)(F)F)c7)n6)CC5)c4)CC3)cc21` [Example 4, 1-(1-methyl-6-(1-(3-((4-((4-(1-(2,2,2-trifluoroethyl)-1H-pyrazol-4-yl)-5-(trifluoromethyl)pyrimidin-2-yl)amino)-piperidin-1-yl)sulfonyl)-benzyl)-piperidin-4-yl)-1H-indazol-3-yl)dihydro-pyrimidine-2,4(1H,3H)-dione]: at CDK2 [1], the IC50 is less than 100 nM. For the same compound, the DC50 on CDK2 [2] is less than 0.1 µM.
For the compound `Cn1nc(N2CCC(=O)NC2=O)c2ccc(N3CCC(CN4CCC(S(=O)(=O)N5CCC(Nc6ncc(C(F)(F)F)c(-c7cnn(CC(F)(F)F)c7)n6)CC5)CC4)CC3)cc21` [Example 92, 1-(1-methyl-6-(4-((4-((4-((4-(1-(2,2,2-trifluoroethyl)-1H-pyrazol-4-yl)-5-(trifluoromethyl)pyrimidin-2-yl)amino)-piperidin-1-yl)sulfonyl)-piperidin-1-yl)methyl)piperidin-1-yl)-1H-indazol-3-yl)dihydropyrimidine-2,4(1H,3H)-dione], the IC50 at CDK2 [1] is less than 100 nM. Further, the DC50 on CDK2 [2] was less than 0.1 µM.
For `Cn1c(S(=O)(=O)N2CCC(Nc3ncc(C(F)(F)F)c(-c4cnn(CC(F)(F)F)c4)n3)CC2)cnc1CN1CCN(c2ccc3c(N4CCC(=O)NC4=O)nn(C)c3c2)CC1` [Example 69, 1-(1-methyl-6-(4-((1-methyl-5-((4-((4-(1-(2,2,2-trifluoroethyl)-1H-pyrazol-4-yl)-5-(trifluoromethyl)pyrimidin-2-yl)amino)-piperidin-1-yl)sulfonyl)-1H-imidazol-2-yl)methyl)piperazin-1-yl)-1H-indazol-3-yl)dihydropyrimidine-2,4(1H,3H)-dione], in that order: less than 100 nM and less than 0.1 µM.
Taken in the same sequence, the figures for `O=C1CCC(NC2CCN(Cc3cccc(S(=O)(=O)N4CCC(Nc5ncc(C(F)(F)F)c(-c6cnn(CC(F)(F)F)c6)n5)CC4)c3)CC2)C(=O)N1` (stereo not drawn) [Example 72, 3-((1-(3-((4-((4-(1-(2,2,2-trifluoro-ethyl)-1H-pyrazol-4-yl)-5-(trifluoromethyl)-pyrimidin-2-yl)amino)-piperidin-1-yl)-sulfonyl)benzyl)piperidin-4-yl)amino)-piperidine-2,6-dione] were less than 100 nM and less than 0.1 µM.
Taken in the same sequence, the figures for `Cn1nc(N2CCC(=O)NC2=O)c2ccc(C3CCN(Cc4cccc(S(=O)(=O)N5CCC(Nc6ncc(C(F)(F)F)c(-c7cnn(CC(F)(F)F)c7)n6)CC5)c4)CC3)c(F)c21` [Example 64, 1-(7-fluoro-1-methyl-6-(1-(3-((4-((4-(1-(2,2,2-trifluoroethyl)-1H-pyrazol-4-yl)-5-(trifluoromethyl)pyrimidin-2-yl)amino)-piperidin-1-yl)sulfonyl)-benzyl)-piperidin-4-yl)-1H-indazol-3-yl)dihydro-pyrimidine-2,4(1H,3H)-dione] were less than 100 nM and less than 0.1 µM.
`C[C@@H]1CN(S(=O)(=O)c2cccc(CN3CCC(c4ccc5c(N6CCC(=O)NC6=O)nn(C)c5c4)CC3)c2)CC[C@@H]1Nc1ncc(C(F)(F)F)c(-c2cnn(CC(F)(F)F)c2)n1` [Example 34, 1-(1-methyl-6-(1-(3-(((3R,4S)-3-methyl-4-((4-(1-(2,2,2-trifluoroethyl)-1H-pyrazol-4-yl)-5-(trifluoromethyl)-pyrimidin-2-yl)amino)piperidin-1-yl)-sulfonyl)benzyl)piperidin-4-yl)-1H-indazol-3-yl)dihydropyrimidine-2,4(1H,3H)-dione]: the IC50 at CDK2 [1] was in the range of 100 to 500 nM. Moreover, at CDK2 [2], the DC50 is less than 0.1 µM.
In the case of `CN1CCC(n2cc(-c3nc(NC4CCN(S(=O)(=O)c5cccc(CN6CCC(c7ccc8c(N9CCC(=O)NC9=O)nn(C)c8c7)CC6)c5)CC4)ncc3C(F)(F)F)cn2)CC1` [Example 79, 1-(1-methyl-6-(1-(3-((4-((4-(1-(1-methylpiperidin-4-yl)-1H-pyrazol-4-yl)-5-(trifluoromethyl)pyrimidin-2-yl)-amino)piperidin-1-yl)sulfonyl)-benzyl)-piperidin-4-yl)-1H-indazol-3-yl)dihydro-pyrimidine-2,4(1H,3H)-dione], the IC50 on CDK2 [1] is less than 100 nM. For the same compound, on CDK2 [2], the DC50 is less than 0.1 µM.
For `CC(Cc1cccc(S(=O)(=O)N2CCC(Nc3ncc(C(F)(F)F)c(-c4cnn(-c5ccccc5F)c4)n3)CC2)c1)N1CCC(c2ccc3c(N4CCC(=O)NC4=O)nn(C)c3c2)CC1` (stereo not drawn) [Example 96, 1-(6-(1-(1-(3-((4-((4-(1-(2-fluoro-phenyl)-1H-pyrazol-4-yl)-5-(trifluoro-methyl)pyrimidin-2-yl)amino)-piperidin-1-yl)sulfonyl)phenyl)propan-2-yl)-piperidin-4-yl)-1-methyl-1H-indazol-3-yl)dihydropyrimidine-2,4(1H,3H)-dione], in that order: less than 100 nM and less than 0.1 µM.

(Values after patent US20260274853A1, “BIFUNCTIONAL COMPOUNDS CONTAINING PYRIMIDINE DERIVATIVES FOR DEGRADING CYCLIN-DEPENDENT KINASE 2 VIA UBIQUITIN PROTEASOME PATHWAY” (NIKANG THERAPEUTICS, INC., priority 2022, published 2026).)
